{
  "source": "ChEMBL document CHEMBL2375219",
  "about": "“Discovery of new potential hits of Plasmodium falciparum enoyl-ACP reductase through ligand- and structure-based drug design approaches” (Bioorg Med Chem Lett, 2013)",
  "data": [
    {"assay": "Inhibition of Plasmodium falciparum enoyl-ACP reductase expressed in Escherichia coli BL21(DE3) assessed as inhibition of crotonyl-CoA reduction to butyryl-CoA by UV-Vis spectrophotometric analysis", "values": [
      {"molecule": "COC(=O)c1ccc(/C=C2\\SC(=S)N(c3cccc(O)c3)C2=O)cc1", "pIC50": 5.081},
      {"molecule": "COc1cccc(N2C(=O)/C(=C/c3ccc(C(=O)O)cc3)SC2=S)c1", "pIC50": 5.009},
      {"molecule": "O=C(O)c1ccccc1/C=C1\\SC(=S)N(c2cccc(Cl)c2)C1=O", "pIC50": 4.921},
      {"molecule": "COc1cccc(N2C(=O)/C(=C/c3cccc(O)c3)SC2=S)c1", "pIC50": 5.041},
      {"molecule": "O=C1/C(=C/c2ccc(O)c(O)c2)SC(=S)N1c1cccc(Cl)c1", "pIC50": 6.097},
      {"molecule": "CCOc1ccc(N2C(=O)/C(=C/c3ccc(O)cc3)SC2=S)cc1", "pIC50": 5.081},
      {"molecule": "O=C1/C(=C/c2ccc(O)cc2)SC(=S)N1c1ccc(Br)cc1", "pIC50": 4.955},
      {"molecule": "Cc1ccc(N2C(=O)/C(=C/c3ccc(O)c(O)c3)SC2=S)cc1C", "pIC50": 6.602},
      {"molecule": "O=C(O)c1ccc(/C=C2\\SC(=S)N(c3ccccc3F)C2=O)cc1", "pIC50": 4.79},
      {"molecule": "COc1ccc(N2C(=O)/C(=C/c3ccc(OC)c(O)c3)SC2=S)cc1", "pIC50": 5.004},
      {"molecule": "O=C1/C(=C/c2ccc(O)cc2)SC(=S)N1c1cccc(F)c1", "pIC50": 5.066},
      {"molecule": "CCOC(=O)c1ccc(/C=C2\\SC(=S)N(c3cccc(Cl)c3)C2=O)cc1", "pIC50": 4.724},
      {"molecule": "CCOc1cc(/C=C2\\SC(=S)N(c3ccc(Br)cc3)C2=O)ccc1O", "pIC50": 4.857},
      {"molecule": "O=C(O)c1ccc(/C=C2\\SC(=S)N(c3cccc(Cl)c3)C2=O)cc1", "pIC50": 5.06},
      {"molecule": "O=C1/C(=C/c2ccc([N+](=O)[O-])cc2)SC(=S)N1c1ccc(F)cc1", "pIC50": 4.833},
      {"molecule": "O=C(O)c1ccc(/C=C2\\SC(=S)N(c3ccc(O)cc3)C2=O)cc1", "pIC50": 5.056},
      {"molecule": "O=C1/C(=C/c2ccc(O)c(O)c2)SC(=S)N1c1ccc(Cl)cc1", "pIC50": 5.102},
      {"molecule": "O=C1/C(=C/c2cccc(O)c2)SC(=S)N1c1ccccc1", "pIC50": 5.066},
      {"molecule": "O=C1/C(=C/c2ccc(Cl)c([N+](=O)[O-])c2)SC(=S)N1c1cccc(Cl)c1", "pIC50": 4.73},
      {"molecule": "O=C1/C(=C/c2ccc(O)cc2)SC(=S)N1c1ccc(Cl)cc1", "pIC50": 4.676},
      {"molecule": "O=C1/C(=C/c2ccc([N+](=O)[O-])cc2)SC(=S)N1c1cccc(C(F)(F)F)c1", "pIC50": 4.896},
      {"molecule": "COC(=O)c1ccc(N2C(=O)/C(=C/c3cccc(OC)c3)SC2=S)cc1", "pIC50": 4.565},
      {"molecule": "Cc1cccc(N2C(=O)/C(=C/c3ccc(O)c(Br)c3)SC2=S)c1", "pIC50": 5.009},
      {"molecule": "O=C1/C(=C/c2ccc(O)cc2)SC(=S)N1c1ccccc1", "pIC50": 5.032},
      {"molecule": "COc1ccc(/C=C2\\SC(=S)N(c3cccc([N+](=O)[O-])c3)C2=O)cc1Br", "pIC50": 4.627},
      {"molecule": "Cc1ccc(N2C(=O)/C(=C/c3ccc(O)c(O)c3)SC2=S)c(C)c1", "pIC50": 6.301},
      {"molecule": "COc1cc(/C=C2\\SC(=S)N(c3ccc([N+](=O)[O-])cc3)C2=O)cc(Cl)c1O", "pIC50": 5.004},
      {"molecule": "COc1ccc(/C=C2\\SC(=S)N(c3cccc(C(F)(F)F)c3)C2=O)cc1", "pIC50": 5.187},
      {"molecule": "COc1cccc(N2C(=O)/C(=C/c3ccc(O)cc3)SC2=S)c1", "pIC50": 4.91},
      {"molecule": "COc1ccc(/C=C2\\SC(=S)N(c3cccc(OC)c3)C2=O)cc1", "pIC50": 4.879},
      {"molecule": "O=C(O)c1ccc(/C=C2\\SC(=S)N(c3ccccc3)C2=O)cc1", "pIC50": 5.041},
      {"molecule": "O=C(O)c1ccccc1/C=C1\\SC(=S)N(c2ccc(F)cc2)C1=O", "pIC50": 4.573},
      {"molecule": "CCOc1cc(/C=C2\\SC(=S)N(c3ccccc3C)C2=O)ccc1O", "pIC50": 5.022},
      {"molecule": "O=C1/C(=C/c2cc(O)c(O)c(Br)c2)SC(=S)N1c1cccc(C(F)(F)F)c1", "pIC50": 5.004},
      {"molecule": "O=C1/C(=C/c2ccc(O)cc2)SC(=S)N1c1ccc([N+](=O)[O-])cc1", "pIC50": 5.387},
      {"molecule": "O=C1/C(=C/c2ccc(O)c([N+](=O)[O-])c2)SC(=S)N1c1cccc2ccccc12", "pIC50": 4.535}
    ]}
  ]
}
